Measured values as given in patent US5659023A, “Nucleotide analogues” (Gilead Sciences, Inc., priority 1995, dated 1997).
Read-outs that look alike come from different tables or passages of the source.

What was measured:
human CMV = experiment: standard plaque inhibition assay, inhibitory effect against human CMV; format: cell-based; details: Human betaherpesvirus 5
Method: (§1) Compounds made in the foregoing examples were assayed for inhibitory effect against human CMV using the standard plaque inhibition assay (Lurain, "J. Vir." 66:7146-7152 (1992)). The cells used for the toxicity assay were normal human dermal fibroblasts.

[1] = toxicity assay in normal human dermal fibroblasts; format: cell-based
Method: as §1

[2] = human CMV, plaque inhibition assay (Table 8), read-out: IC50

Compound | IC50 (human CMV; [2]) | CC50 [1] | IC50 (human CMV; reference HPMPC, read-out: IC50) | CC50 ([1]; reference HPMPC, read-out: CC50) | IC50 (human CMV)
Nc1ccn([C@@H]2CC[C@H](P(=O)(O)O)O[C@@H]2CO)c(=O)n1 [(32'), 4-(cytosin-1-yl)-β-D-threo-hexopyranosylphosphonic acid] | 80 µM | > 1000 µM |  |  | 
C[C@@H]1O[C@H](P(=O)(O)O)C=C[C@@H]1n1ccc(N)nc1=O [(64), 4-(cytosin-1-yl)-2,3,6-trideoxy-β-L-threo-hex-2-enopyranosylphosphonic acid] | 200 µM | > 1000 µM |  |  | 
Nc1ccn(C[C@@H](CO)OCP(=O)(O)O)c(=O)n1 [HPMPC, reference compound] |  |  | 0.5 µM | 200 µM | 
C[C@@H]1OC(P(=O)(O)O)=CC[C@@H]1n1ccc(N)nc1=O [(65), 4-(cytosin-1-yl)-2,3,6-trideoxy-L-threo-hex-1-enopyranosylphosphonic acid] | 300 µM | > 1000 µM |  |  | 
Nc1ccn([C@@H]2C=C[C@H](P(=O)(O)O)O[C@@H]2CO)c(=O)n1 [(30), 4-(cytosin-1-yl)-2,3-dideoxy-β-D-threo-hex-2-enopyranosylphosphonic acid] |  | > 1000 µM |  |  | 10 µM
Nc1ccn([C@@H]2CC=C(P(=O)(O)O)O[C@@H]2CO)c(=O)n1 [(28'), 4-(cytosin-1-yl)-2,3-dideoxy-D-threo-hex-1-enopyranosyl phosphonic acid] | 40 µM | > 1000 µM |  |  | 
